What was measured:
[1] = 101.33 kPa, Liquid
[2] = xn = mol fraction of the nth substance listed; details: 101.3 kPa, Liquid

CCCCCCCCCCCC [dodecane]
[1]
Details	mass density [kg/m3]
288.15 K	752.44
293.15 K	748.8
298.15 K	745.19
303.15 K	741.57
308.15 K	737.93
318.15 K	730.7
328.15 K	723.32

CCCCCCCCCCCC [dodecane] + COC(=O)OC
[2]
Details	mass density [kg/m3]
288.15 K, x2 = 0.1	763.29
288.15 K, x2 = 0.1984	775.97
288.15 K, x2 = 0.2519	783.82
288.15 K, x2 = 0.2998	791.48
288.15 K, x2 = 0.3943	808.72
288.15 K, x2 = 0.9498	1031.65
293.15 K, x2 = 0.0994	759.42
293.15 K, x2 = 0.2008	772.33
293.15 K, x2 = 0.2474	779.08
293.15 K, x2 = 0.2967	786.85
293.15 K, x2 = 0.3962	804.76
293.15 K, x2 = 0.9006	989.35
293.15 K, x2 = 0.9507	1026.33
298.15 K, x2 = 0.1015	755.81
298.15 K, x2 = 0.1968	767.75
298.15 K, x2 = 0.2518	775.63
298.15 K, x2 = 0.3057	784.12
298.15 K, x2 = 0.4019	801.57
298.15 K, x2 = 0.4976	822.41
298.15 K, x2 = 0.5975	849.03
298.15 K, x2 = 0.7026	884.3
298.15 K, x2 = 0.7991	925.9
298.15 K, x2 = 0.9011	984.3
298.15 K, x2 = 0.9512	1020.8
303.15 K, x2 = 0.0995	751.67
303.15 K, x2 = 0.195	763.42
303.15 K, x2 = 0.2498	771.18
303.15 K, x2 = 0.3315	784.26
303.15 K, x2 = 0.3999	796.8
303.15 K, x2 = 0.4997	818.35
303.15 K, x2 = 0.6015	845.3
303.15 K, x2 = 0.6974	876.92
303.15 K, x2 = 0.798	919.35
303.15 K, x2 = 0.8988	976.31
303.15 K, x2 = 0.9497	1012.95
308.15 K, x2 = 0.0998	747.85
308.15 K, x2 = 0.1992	759.93
308.15 K, x2 = 0.2486	766.84
308.15 K, x2 = 0.2938	773.75
308.15 K, x2 = 0.4017	792.74
308.15 K, x2 = 0.5014	814.12
308.15 K, x2 = 0.5995	839.81
308.15 K, x2 = 0.6978	871.92
308.15 K, x2 = 0.7983	914.04
308.15 K, x2 = 0.9004	971.25
308.15 K, x2 = 0.9494	1006.38
318.15 K, x2 = 0.1003	740.31
318.15 K, x2 = 0.2044	752.75
318.15 K, x2 = 0.251	759.14
318.15 K, x2 = 0.3042	767.18
318.15 K, x2 = 0.401	783.99
318.15 K, x2 = 0.4988	804.44
318.15 K, x2 = 0.6028	831.06
318.15 K, x2 = 0.6973	861.26
318.15 K, x2 = 0.8023	904.51
318.15 K, x2 = 0.8976	956.98
318.15 K, x2 = 0.9497	993.69
328.15 K, x2 = 0.0924	731.92
328.15 K, x2 = 0.2	744.23
328.15 K, x2 = 0.25	750.88
328.15 K, x2 = 0.3	758.18
328.15 K, x2 = 0.4007	775.11
328.15 K, x2 = 0.5003	795.39
328.15 K, x2 = 0.6158	824.8
328.15 K, x2 = 0.7057	853.75
328.15 K, x2 = 0.7855	885.61
328.15 K, x2 = 0.8981	945.23
328.15 K, x2 = 0.9483	979.79

CCOC(=O)OCC [diethyl carbonate]
[1]
Details	mass density [kg/m3]
288.15 K	980.29
293.15 K	974.57
298.15 K	969.07
303.15 K	963.6
308.15 K	957.98
318.15 K	947.67
328.15 K	935.12

CCOC(=O)OCC [diethyl carbonate] + CCCCCCCCCCCC
[2]
Details	mass density [kg/m3]
288.15 K, x1 = 0.1242	766.85
288.15 K, x1 = 0.2013	776.91
288.15 K, x1 = 0.2481	783.48
288.15 K, x1 = 0.309	792.61
288.15 K, x1 = 0.4053	808.61
288.15 K, x1 = 0.5069	827.83
288.15 K, x1 = 0.603	848.75
288.15 K, x1 = 0.7026	873.85
288.15 K, x1 = 0.8014	903.1
288.15 K, x1 = 0.8997	937.64
288.15 K, x1 = 0.9501	958.03
293.15 K, x1 = 0.1018	760.24
293.15 K, x1 = 0.2018	772.97
293.15 K, x1 = 0.2513	779.88
293.15 K, x1 = 0.3056	787.96
293.15 K, x1 = 0.4094	805.05
293.15 K, x1 = 0.5064	823.29
293.15 K, x1 = 0.604	844.35
293.15 K, x1 = 0.7024	868.92
293.15 K, x1 = 0.8026	898.28
293.15 K, x1 = 0.9022	933.11
293.15 K, x1 = 0.9498	952.23
298.15 K, x1 = 0.1025	756.57
298.15 K, x1 = 0.2042	769.39
298.15 K, x1 = 0.2522	776.01
298.15 K, x1 = 0.3009	783.17
298.15 K, x1 = 0.4041	799.89
298.15 K, x1 = 0.5027	818.2
298.15 K, x1 = 0.6059	840.28
298.15 K, x1 = 0.7074	865.61
298.15 K, x1 = 0.799	892.28
298.15 K, x1 = 0.8994	926.96
298.15 K, x1 = 0.9513	947.6
303.15 K, x1 = 0.1013	752.68
303.15 K, x1 = 0.2027	765.3
303.15 K, x1 = 0.2521	772.06
303.15 K, x1 = 0.3003	779.07
303.15 K, x1 = 0.4041	795.74
303.15 K, x1 = 0.4993	813.2
303.15 K, x1 = 0.605	835.58
303.15 K, x1 = 0.7035	859.82
303.15 K, x1 = 0.7993	887.45
303.15 K, x1 = 0.8999	921.93
303.15 K, x1 = 0.9508	942.05
308.15 K, x1 = 0.1049	749.28
308.15 K, x1 = 0.2059	761.76
308.15 K, x1 = 0.2441	766.93
308.15 K, x1 = 0.3043	775.59
308.15 K, x1 = 0.4026	791.26
308.15 K, x1 = 0.5062	810.2
308.15 K, x1 = 0.6032	830.59
308.15 K, x1 = 0.7045	855.29
308.15 K, x1 = 0.8015	883.09
308.15 K, x1 = 0.9005	916.79
308.15 K, x1 = 0.9507	936.48
318.15 K, x1 = 0.1041	741.75
318.15 K, x1 = 0.1989	753.22
318.15 K, x1 = 0.2492	759.89
318.15 K, x1 = 0.3079	768.25
318.15 K, x1 = 0.4075	783.98
318.15 K, x1 = 0.5	800.6
318.15 K, x1 = 0.6026	821.73
318.15 K, x1 = 0.7001	845.05
318.15 K, x1 = 0.7995	872.99
318.15 K, x1 = 0.8973	905.76
318.15 K, x1 = 0.9485	925.55
328.15 K, x1 = 0.1023	733.88
328.15 K, x1 = 0.2027	745.71
328.15 K, x1 = 0.2498	751.81
328.15 K, x1 = 0.3042	759.33
328.15 K, x1 = 0.3984	773.69
328.15 K, x1 = 0.5099	793.25
328.15 K, x1 = 0.6045	812.43
328.15 K, x1 = 0.7037	835.73
328.15 K, x1 = 0.7992	862.04
328.15 K, x1 = 0.8987	894.71
328.15 K, x1 = 0.9506	914.36

COC(=O)OC [dimethyl carbonate]
[1]
Details	mass density [kg/m3]
288.15 K	1076.43
293.15 K	1069.95
298.15 K	1063.26
303.15 K	1056.61
308.15 K	1050.01
318.15 K	1036.65
328.15 K	1022.92
